Measurements taken from paper PMC7366380, “Discovery of a Potent and Selective Covalent Inhibitor and Activity-Based Probe for the Deubiquitylating Enzyme UCHL1, with Antifibrotic Activity” (Journal of the American Chemical Society, 2020).
“And” between values parts separate entries of the source, which are not always exact repeats. Equal values may be shown once.

What was measured:
[1] = target: T1, USP19 (Homo sapiens, UniProt O94966); assay: Biochemical DUB selectivity profiling assay: USP19; settings: Ub-Lys-TAMRA 50 nM, buffer A; read-out: Biochemical IC50 range, USP19
T1 sequence (O94966 1-1318): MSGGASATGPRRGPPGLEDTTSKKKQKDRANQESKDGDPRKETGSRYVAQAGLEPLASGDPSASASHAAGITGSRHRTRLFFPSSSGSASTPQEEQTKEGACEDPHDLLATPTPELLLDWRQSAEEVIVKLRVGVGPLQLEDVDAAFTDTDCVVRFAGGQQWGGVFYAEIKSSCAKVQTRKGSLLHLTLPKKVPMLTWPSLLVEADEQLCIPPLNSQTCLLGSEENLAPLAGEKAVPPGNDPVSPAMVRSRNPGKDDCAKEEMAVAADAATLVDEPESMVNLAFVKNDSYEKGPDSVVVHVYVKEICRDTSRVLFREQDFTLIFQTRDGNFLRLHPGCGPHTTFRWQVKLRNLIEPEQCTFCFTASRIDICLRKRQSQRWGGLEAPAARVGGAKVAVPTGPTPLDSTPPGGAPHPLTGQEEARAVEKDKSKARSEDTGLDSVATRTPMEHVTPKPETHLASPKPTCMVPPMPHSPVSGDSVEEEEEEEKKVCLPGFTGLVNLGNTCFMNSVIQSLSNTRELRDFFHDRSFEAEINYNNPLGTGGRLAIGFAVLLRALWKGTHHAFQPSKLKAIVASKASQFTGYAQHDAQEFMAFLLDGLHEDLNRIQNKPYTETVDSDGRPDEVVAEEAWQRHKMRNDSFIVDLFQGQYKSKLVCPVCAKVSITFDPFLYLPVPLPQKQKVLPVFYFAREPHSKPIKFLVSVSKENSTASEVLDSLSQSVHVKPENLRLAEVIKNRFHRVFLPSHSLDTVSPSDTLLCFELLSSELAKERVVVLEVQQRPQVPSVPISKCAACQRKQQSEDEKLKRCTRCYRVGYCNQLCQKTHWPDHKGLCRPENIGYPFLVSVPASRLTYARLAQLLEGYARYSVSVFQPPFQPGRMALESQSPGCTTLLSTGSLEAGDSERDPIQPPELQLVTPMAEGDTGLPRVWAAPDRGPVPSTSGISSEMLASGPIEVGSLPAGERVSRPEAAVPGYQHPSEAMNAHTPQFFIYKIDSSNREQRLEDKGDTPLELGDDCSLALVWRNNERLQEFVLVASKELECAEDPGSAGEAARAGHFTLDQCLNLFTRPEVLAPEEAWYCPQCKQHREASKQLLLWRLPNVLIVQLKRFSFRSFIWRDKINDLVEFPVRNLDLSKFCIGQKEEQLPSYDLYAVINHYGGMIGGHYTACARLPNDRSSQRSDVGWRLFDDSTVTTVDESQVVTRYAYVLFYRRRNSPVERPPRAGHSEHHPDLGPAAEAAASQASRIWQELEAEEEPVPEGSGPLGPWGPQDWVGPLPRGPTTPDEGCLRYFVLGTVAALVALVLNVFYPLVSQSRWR
Method: DUB Assay Substrate Substrate
Buffer Concentration (nM) […]
Sepharose® 4B resin (GE Healthcare).
10 kDa molecular weight cut-off (MWCO)).
Fractions containing protein
Protein concentration was […]
reaction volume of 21 μL. […]
compound (final concentration 5 nM).
IC50 values were determined
Biochemical DUB selectivity profiling assays […]
in 40 µL total reaction volume.

[2] = target: DUBs and other proteins in HEK293 cells (Homo sapiens, UniProt P51784); assay: In-cell proteome-wide competitive ABPP, HEK293: other DUBs and proteins; settings: replicates A-C; for Log2 reporter intensity values: USP11: competition with ABP 2, DMSO substract (FC); for Log2 reporter intensity values: USP11, DMSO subtracted
Chain of DUBs and other proteins in HEK293 cells (Homo sapiens, UniProt P51784) (P51784 whole entry): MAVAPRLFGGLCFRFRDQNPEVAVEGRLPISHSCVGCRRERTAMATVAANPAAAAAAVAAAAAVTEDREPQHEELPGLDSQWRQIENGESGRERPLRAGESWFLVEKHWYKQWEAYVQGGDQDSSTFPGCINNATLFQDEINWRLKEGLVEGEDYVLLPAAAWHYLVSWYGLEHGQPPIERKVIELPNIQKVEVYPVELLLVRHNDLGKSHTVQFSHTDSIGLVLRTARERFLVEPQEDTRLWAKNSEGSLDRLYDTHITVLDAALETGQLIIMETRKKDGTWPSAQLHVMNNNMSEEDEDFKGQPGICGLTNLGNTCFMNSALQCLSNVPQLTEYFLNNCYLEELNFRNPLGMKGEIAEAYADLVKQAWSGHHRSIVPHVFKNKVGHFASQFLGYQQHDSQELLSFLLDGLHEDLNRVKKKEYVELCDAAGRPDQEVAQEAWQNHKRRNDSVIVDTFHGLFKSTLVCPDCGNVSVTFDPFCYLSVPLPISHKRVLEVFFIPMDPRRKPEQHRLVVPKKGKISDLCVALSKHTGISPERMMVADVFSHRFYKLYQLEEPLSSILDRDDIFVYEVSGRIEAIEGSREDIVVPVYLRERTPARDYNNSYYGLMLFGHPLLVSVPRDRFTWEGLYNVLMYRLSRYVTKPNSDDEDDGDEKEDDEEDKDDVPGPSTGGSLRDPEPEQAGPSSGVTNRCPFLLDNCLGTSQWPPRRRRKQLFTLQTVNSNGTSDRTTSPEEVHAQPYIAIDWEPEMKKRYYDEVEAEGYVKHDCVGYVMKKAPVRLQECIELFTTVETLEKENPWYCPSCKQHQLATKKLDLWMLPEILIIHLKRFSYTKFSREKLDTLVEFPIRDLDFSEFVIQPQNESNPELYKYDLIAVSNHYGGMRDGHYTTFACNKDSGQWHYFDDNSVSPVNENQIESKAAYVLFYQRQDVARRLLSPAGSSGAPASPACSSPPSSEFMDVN

[3] = target: DUBs and other proteins in HEK293 cells (Homo sapiens, UniProt Q14694); assay: as above; settings: replicates A-C; for Log2 reporter intensity values: USP10: competition with ABP 2, DMSO substract (FC); for Log2 reporter intensity values: USP10, DMSO subtracted
Chain of DUBs and other proteins in HEK293 cells (Homo sapiens, UniProt Q14694) (Q14694 whole entry): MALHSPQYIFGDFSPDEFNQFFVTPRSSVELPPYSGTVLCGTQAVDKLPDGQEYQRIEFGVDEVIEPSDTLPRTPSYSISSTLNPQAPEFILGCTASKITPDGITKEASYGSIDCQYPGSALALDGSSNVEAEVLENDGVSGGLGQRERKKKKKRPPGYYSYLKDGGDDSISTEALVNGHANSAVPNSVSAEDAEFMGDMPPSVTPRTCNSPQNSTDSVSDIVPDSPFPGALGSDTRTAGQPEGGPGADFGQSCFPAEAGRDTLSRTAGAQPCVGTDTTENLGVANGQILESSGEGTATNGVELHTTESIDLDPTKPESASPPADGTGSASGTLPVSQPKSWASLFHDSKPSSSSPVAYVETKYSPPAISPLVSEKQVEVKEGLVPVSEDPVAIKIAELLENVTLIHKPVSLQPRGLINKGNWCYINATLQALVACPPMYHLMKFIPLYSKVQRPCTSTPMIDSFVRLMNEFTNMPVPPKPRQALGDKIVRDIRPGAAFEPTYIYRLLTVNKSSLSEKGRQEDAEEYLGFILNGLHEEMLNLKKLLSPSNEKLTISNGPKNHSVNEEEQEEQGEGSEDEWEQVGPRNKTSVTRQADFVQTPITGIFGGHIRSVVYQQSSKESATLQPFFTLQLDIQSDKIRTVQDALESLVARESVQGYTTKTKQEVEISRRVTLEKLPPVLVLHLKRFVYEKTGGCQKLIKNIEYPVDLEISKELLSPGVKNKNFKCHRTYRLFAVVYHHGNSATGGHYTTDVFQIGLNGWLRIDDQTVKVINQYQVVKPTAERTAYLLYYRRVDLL

[4] = target: DUBs and other proteins in HEK293 cells (Homo sapiens, UniProt Q96BN8); assay: as above; settings: replicates A-C; for Log2 reporter intensity values: OTULIN: competition with ABP 2, DMSO substract (FC); for Log2 reporter intensity values: OTULIN, DMSO subtracted
Chain of DUBs and other proteins in HEK293 cells (Homo sapiens, UniProt Q96BN8) (Q96BN8 whole entry): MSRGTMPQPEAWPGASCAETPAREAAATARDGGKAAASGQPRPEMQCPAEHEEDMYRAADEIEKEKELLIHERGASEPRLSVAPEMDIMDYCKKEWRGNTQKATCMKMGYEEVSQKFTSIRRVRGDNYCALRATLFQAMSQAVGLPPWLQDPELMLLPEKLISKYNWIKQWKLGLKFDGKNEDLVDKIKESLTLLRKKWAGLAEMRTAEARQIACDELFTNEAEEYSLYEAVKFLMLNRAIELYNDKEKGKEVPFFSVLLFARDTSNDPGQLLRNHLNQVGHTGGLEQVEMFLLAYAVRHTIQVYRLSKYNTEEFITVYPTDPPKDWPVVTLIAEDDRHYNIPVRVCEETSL

[5] = target: DUBs and other proteins in HEK293 cells (Homo sapiens, UniProt O15372); assay: as above; settings: for Log2 reporter intensity values, EIF3H: TMT replicates; for Log2 reporter intensity values: EIF3H: competition with ABP 2, DMSO substract (FC); for Log2 reporter intensity values: EIF3H / Log2 reporter intensity values: replicates A-C; for Log2 t-test Difference / Log2 reporter intensity values: EIF3H
Chain of DUBs and other proteins in HEK293 cells (Homo sapiens, UniProt O15372) (O15372 whole entry): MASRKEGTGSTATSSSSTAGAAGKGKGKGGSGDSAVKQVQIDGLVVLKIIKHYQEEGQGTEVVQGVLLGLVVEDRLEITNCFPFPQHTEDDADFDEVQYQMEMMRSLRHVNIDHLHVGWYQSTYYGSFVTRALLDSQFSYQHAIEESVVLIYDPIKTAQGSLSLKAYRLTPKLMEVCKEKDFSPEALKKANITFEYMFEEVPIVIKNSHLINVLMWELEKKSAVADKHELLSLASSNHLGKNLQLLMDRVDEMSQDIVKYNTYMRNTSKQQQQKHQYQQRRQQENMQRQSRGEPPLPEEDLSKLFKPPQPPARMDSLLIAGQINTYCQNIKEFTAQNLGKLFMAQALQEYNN

[6] = target: DUBs and other proteins in HEK293 cells (Homo sapiens, UniProt Q96FW1); assay: as above; settings: replicates A-C; for Log2 reporter intensity values: OTUB1: competition with ABP 2, DMSO substract (FC); for Log2 reporter intensity values: OTUB1, DMSO subtracted
Chain of DUBs and other proteins in HEK293 cells (Homo sapiens, UniProt Q96FW1) (Q96FW1 whole entry): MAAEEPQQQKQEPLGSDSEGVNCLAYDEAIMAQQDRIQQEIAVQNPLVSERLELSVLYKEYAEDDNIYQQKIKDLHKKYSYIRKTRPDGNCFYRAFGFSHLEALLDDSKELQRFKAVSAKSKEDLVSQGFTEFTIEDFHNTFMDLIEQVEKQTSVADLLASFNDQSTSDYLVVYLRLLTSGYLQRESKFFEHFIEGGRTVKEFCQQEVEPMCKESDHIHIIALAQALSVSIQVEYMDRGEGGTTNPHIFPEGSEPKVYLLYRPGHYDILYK

[7] = target: DUBs and other proteins in HEK293 cells (Homo sapiens, UniProt Q93008); assay: as above; settings: replicates A-C; for Log2 reporter intensity values: USP9X;USP9Y: competition with ABP 2, DMSO substract (FC); for Log2 reporter intensity values: USP9X;USP9Y, DMSO subtracted

IC50 [1]: > 10 µM
Log2 reporter intensity values: USP11 ([2]; 3 at 1 μM): 1.117 and 1.058 and 1.05
Log2 reporter intensity values: USP11 ([2]; 3 at 4 μM): 0.8158 and 0.9889 and 0.9502
Log2 reporter intensity values ([2]; 3_1 μM): 0.1164 and 0.05763 and 0.04999
Log2 reporter intensity values ([2]; 3_4 μM): -0.1845 and -0.01139 and -0.05014
Log2 reporter intensity values ([2]; 3 at 1 μM): 0.1593 and 0.08129 and 0.07083
Log2 reporter intensity values ([2]; 3 at 4 μM): -0.2937 and -0.01604 and -0.0737
Log2 reporter intensity values: USP10 ([3]; 3 at 1 μM): 0.9243 and 0.9306 and 0.9846
Log2 reporter intensity values: USP10 ([3]; 3 at 4 μM): 0.9265 and 0.935 and 0.9597
Log2 reporter intensity values ([3]; 3_1 μM): -0.07662 and -0.07034 and -0.01633
Log2 reporter intensity values ([3]; 3_4 μM): -0.07444 and -0.066 and -0.04125
Log2 reporter intensity values ([3]; 3 at 1 μM): -0.1135 and -0.1037 and -0.02233
Log2 reporter intensity values ([3]; 3 at 4 μM): -0.1101 and -0.09701 and -0.05932
Log2 reporter intensity values: OTULIN ([4]; 3 at 1 μM): 1.194 and 0.9889 and 0.9216
Log2 reporter intensity values: OTULIN ([4]; 3 at 4 μM): 0.8963 and 0.9821 and 1.002
Log2 reporter intensity values ([4]; 3_1 μM): 0.1933 and -0.01163 and -0.07888
Log2 reporter intensity values ([4]; 3_4 μM): -0.1043 and -0.01848 and 0.001875
Log2 reporter intensity values ([4]; 3 at 1 μM): 0.2556 and -0.01611 and -0.1177
Log2 reporter intensity values ([4]; 3 at 4 μM): -0.158 and -0.02613 and 0.003463
Log2 reporter intensity values, EIF3H ([5]; 1 μM 3 (60 min) + 20 nM ABP 2 (10 min), All values): -0.08032 and 0.01397 and -0.006379
Log2 reporter intensity values, EIF3H ([5]; 1 μM 3 (60 min) + 20 nM ABP 2 (10 min), DMSO subtracted): -0.1099 and -0.01562 and -0.03597
Log2 reporter intensity values, EIF3H ([5]; 4 μM 3 (60 min) + 20 nM ABP 2 (10 min), All values): 0.0444 and 0.04115 and 0.06318
Log2 reporter intensity values, EIF3H ([5]; 4 μM 3 (60 min) + 20 nM ABP 2 (10 min), DMSO subtracted): 0.01481 and 0.01156 and 0.03359
Log2 reporter intensity values: EIF3H ([5]; 3 at 1 μM): 0.9266 and 0.9892 and 0.9754
Log2 reporter intensity values: EIF3H ([5]; 3 at 4 μM): 1.01 and 1.008 and 1.024
Log2 t-test Difference ([5]; 3 - 1 μM): -0.05018
Log2 t-test Difference ([5]; 3 - 4 μM): 0.02364
Log2 reporter intensity values ([5]; 3_1 μM, DMSO subtracted): -0.0735 and -0.01091 and -0.02477
Log2 reporter intensity values ([5]; 3_4 μM, DMSO subtracted): 0.01017 and 0.007903 and 0.02341
Log2 reporter intensity values ([5]; 3 at 1 μM, DMSO subtracted): -0.1099 and -0.01562 and -0.03597
Log2 reporter intensity values ([5]; 3 at 4 μM, DMSO subtracted): 0.01481 and 0.01156 and 0.03359
Log2 reporter intensity values: OTUB1 ([6]; 3 at 1 μM): 0.9728 and 1.005 and 0.986
Log2 reporter intensity values: OTUB1 ([6]; 3 at 4 μM): 1.016 and 1.059 and 1.053
Log2 reporter intensity values ([6]; 3_1 μM): -0.02736 and 0.004799 and -0.01417
Log2 reporter intensity values ([6]; 3_4 μM): 0.01602 and 0.05888 and 0.05243
Log2 reporter intensity values ([6]; 3 at 1 μM): -0.03984 and 0.007079 and -0.02041
Log2 reporter intensity values ([6]; 3 at 4 μM): 0.0231 and 0.08271 and 0.07389
Log2 reporter intensity values: USP9X;USP9Y ([7]; 3 at 1 μM): 1.02 and 0.9178 and 0.9768
Log2 reporter intensity values: USP9X;USP9Y ([7]; 3 at 4 μM): 0.9914 and 0.9828 and 0.9945
Log2 reporter intensity values ([7]; 3_1 μM): 0.02022 and -0.08228 and -0.02322
Log2 reporter intensity values ([7]; 3_4 μM): -0.008621 and -0.01719 and -0.00552
Log2 reporter intensity values ([7]; 3 at 1 μM): 0.02892 and -0.1238 and -0.03385
Log2 reporter intensity values ([7]; 3 at 4 μM): -0.01245 and -0.02497 and -0.007941
Structure (SMILES): N#CN1CCC[C@@H]1C(=O)N1CCc2c(-c3c[nH]c4ncccc34)cccc21 [Compound 3]
